Experimental data published in patent US8163661B2, “Luminescence measurement system” (Olympus Corporation, priority 2007, dated 2012).
Like-named read-outs stand apart in the source and are kept apart here.

Columns and labels:
[1] = tested on: CBG luciferase (originating from Hikari Kometsuki); test: Km value of CBG luciferase relative to D-luciferin and ATP (luminometer, photon count); format: biochemical; settings: 8 mM MgSO4, 0.1M Tris-HCl pH 8.0
Method: (§1) As for the blank, the buffer described above was employed. FIG. 6 illustrates the ultraviolet/visible light absorption spectrum of […].
(§2) Then, in order to calculate the concentration of ATP, the ultraviolet/visible light absorption spectrum of ATP was measured. In this measurement, the spectrum was measured using a diluted (by 2000 times) solution (in 0.1M Citrate/0.2M Na2HPO4 buffer, pH=7.0) of ATP stock solution (about 100 mM). As for the blank, the buffer described above was employed. FIG. 7 illustrates the ultraviolet/visible light absorption spectrum of ATP.
(§3) (Experiment Method 2: Purification of Various Kinds of Luciferase)
(§4) The purification of luciferase was performed according to the following procedure after establishing a luciferase-purification system utilizing affinity chromatography.
(§5) (Procedure of Transfection of Luciferase Expression Vector to Coli Bacillus)
(§6) First of all, 0.5 μL of luciferase expression vector was introduced into 50 μL of coli bacillus (JM109(DE3)). Then, the resultant liquid was subjected to a thermostatic treatment consisting of ice-cooling for 10 minutes, heating at 42° C. for one minute and ice-cooling for two minutes. Then, 2 μL of the resultant coli bacillus solution was added to 1 mL of an SOC culture medium.
(§7) Subsequently, the resultant solution of coli bacillus/SOC culture medium mixture was subjected to shaking at 37° C. for 20 minutes and to incubation. Then, 100 μL of the resultant solution was streaked onto an LB culture medium plate (Ampicillin 100 μg/mL+) and subjected to incubation overnight at 37° C.
(§8) (Purification of Luciferase by Means of Affinity Chromatography)
(§9) Then, the coli bacillus was fractured to obtain a raw extract, from which luciferase was purified by means of affinity chromatography.
(§10) Namely, first of all, a suspension of coli bacillus was subjected to centrifugal separation at 15000 rpm for 5 minutes to recover the pellets of coli bacillus, which was then suspended in 10 mL of TBS cooled to 4° C. Subsequently, by making use of French Pressure Cell, the fungus body was fractured. […]

[2] = tested on: CBR luciferase (originating from Hikari Kometsuki); test: Km value of CBR luciferase relative to D-luciferin and ATP (luminometer, photon count); format: biochemical; settings: 8 mM MgSO4, 0.1M Tris-HCl pH 8.0
Method: as §1, §2, §3, §4, §5, §6, §7, §8, §9, §10

[3] = tested on: ELuc (Emerald Luc) luciferase (originating from Hikari Kometsuki); test: Km value of ELuc luciferase relative to D-luciferin and ATP (luminometer, photon count); format: biochemical; settings: 8 mM MgSO4, 0.1M Tris-HCl pH 8.0
Method: as §1, §2, §3, §4, §5, §6, §7, §8, §9
(§11) Namely, first of all, a suspension of coli bacillus was subjected to centrifugal separation at 15000 rpm for 5 minutes to recover the pellets of coli bacillus, which was then suspended in 10 mL of TBS cooled to 4° C. Subsequently, by making use of French Pressure Cell, the fungus body was fractured. The resultant fungus body-fractured liquid was subjected to centrifugal separation (15000 rpm, 10 minutes) to remove settled residues and to recover a supernatant liquid.
(§12) Subsequently, 2 mL of TBS was added to a column having 2 mL of bed volume and subjected to filtration. Then, 500 μL of a Ni-Agar suspension and 2 mL of TBS were added to the column and the TBS was allowed to gravitationally drop (column equilibration). The supernatant liquid thus recovered was added to the column and allowed to gravitationally drop. Incidentally, the operation until the drop of the supernatant liquid was completed was performed inside a refrigerator at a temperature of 4° C. […]

[4] = molecular target: GL3 luciferase (originating from firefly) (Photinus pyralis, UniProt P08659, K549A/L550V/N119G/N50D/S548I); test: Km value of GL3 luciferase relative to D-luciferin and ATP (luminometer, photon count); format: biochemical; settings: read-out: Km value of GL3 relative to ATP, 10-1280 μM ATP, 1 mM D-luciferin, 8 mM MgSO4, 0.1M Tris-HCl pH 8.0
Method: as §1, §2, §3, §4, §5
as §6, with “medium. […]” for “medium.”

[5] = tested on: Yaeyama luciferase (Yaeyama Hime firefly, Luciola filiformis yayeyamana; DNA Sequence No. 1); test: Km value of Yaeyama luciferase relative to D-luciferin and ATP (luminometer, photon count); format: biochemical; settings: 8 mM MgSO4, 0.1M Tris-HCl pH 8.0
Method: as §1, §2, §3, §4, §5, §6, §7, §8, §9, §11, §12

[6] = tested on: intercellular ATP; settings: apoptosis induced by STS; cited from earlier work
[7] = Km value of luciferase relative to ATP (luminometer photon count, Example 2); format: biochemical
Method: (Experiment Method 4: Calculation of Km Value of Various Kind of Luciferase Relative to ATP)
Then, a 0.1M Tris-HCl (pH=8.0) solution of 100 μg/ml luciferase was prepared. The ATP solutions having the aforementioned concentrations were respectively aliquoted to a vessel having 96 wells, thus creating wells each containing 50 μl of the ATP solution.
Then, the luciferase solution was connected with a standard pump of luminometer, after which a program was prepared so as to initiate the measurement concurrent with the addition of 50 μl of the luciferase solution to each of the wells.
Subsequently, the program was started to measure the photon-count value at each ATP concentration. Incidentally, the measurement was repeated five times at each concentration of ATP.
Based on the results obtained, Lineweaver-Burk plot and Hanes-Woolf plot were prepared.

[8] = Luminescence pattern measured with a luminometer (time to peak luminescence after addition of luciferin); format: biochemical
Excerpt: Further, with respect to the luminescence pattern obtained from the measurement using a luminometer also, the results obtained from the luciferase originated from Hikari Kometsuki were found different from the results obtained from the firefly-derived luciferase.
Although data are not shown herein, the results obtained from the Luciferase originated from Hikari Kometsuki were found different from the results obtained from the firefly-derived luciferase with respect also to the luminescence pattern obtained from the measurement using a luminometer.

[9] = substrate: O=C(O)[C@H]1CSC(c2nc3ccc(O)cc3s2)=N1; test: purified protein, by the assay type; settings: 5-640 μM D-luciferin, 4 mM ATP, 8 mM MgSO4, 0.1M Tris-HCl pH 8.0
[10] = substrate: Nc1ncnc2c1ncn2[C@@H]1O[C@H](COP(=O)(O)OP(=O)(O)OP(=O)(O)O)[C@@H](O)[C@H]1O; test: purified protein, by the assay type; format: biochemical, Luciola cruciata; settings: 10-1280 μM ATP, 1 mM D-luciferin, 8 mM MgSO4, 0.1M Tris-HCl pH 8.0
Method: as §1, §2
By making use of the absorbency (259 nm, 0.359±0.004, n=10) obtained from the spectrum of FIG. 7, the concentration of the ATP stock solution was calculated (ATP: λmax=259 nm, ε=15400, pH=7.0). As a result of the calculation, the concentration of the ATP stock solution was found as being 46.6 mM. […]
Subsequently, the elute was moved 400 μL by 400 μL to a centrifugal concentration tube (SUPREC™-02, available from TaKaRa Co., Ltd. (exclusion limit molecular weight: 30,000)) and then subjected to centrifugal separation (5000 rpm, 30 minutes) until the elute was concentrated to about 100 μL. Thereafter, the absorbency of the concentrated elute was measured by means of a plate reader and the concentration of luciferase was calculated from the calibration curve which was prepared by making use of BSA. […]

GL3 luciferase (originating from firefly), sequence (P08659 whole entry N50D/N119G/S548I/K549A/L550V): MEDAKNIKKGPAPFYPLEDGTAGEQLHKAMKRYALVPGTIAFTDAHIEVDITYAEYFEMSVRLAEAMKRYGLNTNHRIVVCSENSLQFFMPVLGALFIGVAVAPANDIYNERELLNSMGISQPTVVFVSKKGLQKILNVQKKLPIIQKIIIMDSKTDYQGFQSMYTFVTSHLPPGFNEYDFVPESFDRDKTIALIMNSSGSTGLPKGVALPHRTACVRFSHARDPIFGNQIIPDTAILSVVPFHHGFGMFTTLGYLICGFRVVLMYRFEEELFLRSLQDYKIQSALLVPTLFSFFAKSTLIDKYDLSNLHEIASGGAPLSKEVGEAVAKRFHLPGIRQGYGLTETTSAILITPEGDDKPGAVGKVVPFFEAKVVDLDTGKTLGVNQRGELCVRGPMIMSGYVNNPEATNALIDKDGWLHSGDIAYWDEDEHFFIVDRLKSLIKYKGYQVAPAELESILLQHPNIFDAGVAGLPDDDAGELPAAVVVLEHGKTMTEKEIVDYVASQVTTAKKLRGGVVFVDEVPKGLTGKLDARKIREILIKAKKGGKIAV

Question: For `Nc1ncnc2c1ncn2[C@@H]1O[C@H](COP(=O)(O)OP(=O)(O)OP(=O)(O)O)[C@@H](O)[C@H]1O` [ATP], which Km ([1]; Hanes-Woolf plot, 10-1280 μM ATP, 1 mM D-luciferin, read-out: Km value of CBG relative to ATP) is on record?
Answer: 290 µM

Question: What about the Km ([2]; Hanes-Woolf plot, 10-1280 μM ATP, 1 mM D-luciferin, read-out: Km value of CBR relative to ATP) of the same molecule?
Answer: 130 µM

Question: What about the Km ([2]; Lineweaver-Burk plot, 10-1280 μM ATP, 1 mM D-luciferin, read-out: Km value of CBR relative to ATP) of the same molecule?
Answer: 110 µM

Question: What about the Km ([3]; Hanes-Woolf plot, 10-1280 μM ATP, 1 mM D-luciferin, read-out: Km value of ELuc relative to ATP) of the same molecule?
Answer: 250 µM

Question: And the Km ([3]; Lineweaver-Burk plot, 10-1280 μM ATP, 1 mM D-luciferin, read-out: Km value of ELuc relative to ATP)?
Answer: 364 µM

Question: And the Km ([4]; Hanes-Woolf plot)?
Answer: 200 µM

Question: What about the Km ([4]; Lineweaver-Burk plot) of the same molecule?
Answer: 200 µM

Question: And the Km ([5]; Hanes-Woolf plot, 10-1280 μM ATP, 1 mM D-luciferin, read-out: Km value of Yaeyama relative to ATP)?
Answer: 400 µM

Question: What about the Km ([5]; Lineweaver-Burk plot, 10-1280 μM ATP, 1 mM D-luciferin, read-out: Km value of Yaeyama relative to ATP) of the same molecule?
Answer: 400 µM

Question: Which Km ([1]; read-out: Km value of CBG relative to D-luciferin, Hanes-Woolf plot, 5-640 μM D-luciferin, 4 mM ATP) does the source give for `O=C(O)[C@H]1CSC(c2nc3ccc(O)cc3s2)=N1` [D-luciferin] here?
Answer: 10.5 µM

Question: What about the Km ([1]; read-out: Km value of CBG relative to D-luciferin, Lineweaver-Burk plot, 5-640 μM D-luciferin, 4 mM ATP) of the same molecule?
Answer: 10.5 µM

Question: And the Km ([2]; read-out: Km value of CBR relative to D-luciferin, Lineweaver-Burk plot, 5-640 μM D-luciferin, 4 mM ATP)?
Answer: 36.4 µM

Question: What about the Km ([3]; read-out: Km value of ELuc relative to D-luciferin, Hanes-Woolf plot, 5-640 μM D-luciferin, 4 mM ATP) of the same molecule?
Answer: 15 µM

Question: What about the Km ([3]; read-out: Km value of ELuc relative to D-luciferin, Lineweaver-Burk plot, 5-640 μM D-luciferin, 4 mM ATP) of the same molecule?
Answer: 15 µM

Question: And the Km ([5]; read-out: Km value of Yaeyama relative to D-luciferin, Hanes-Woolf plot, 5-640 μM D-luciferin, 4 mM ATP)?
Answer: 100 µM

Question: And the Km ([5]; read-out: Km value of Yaeyama relative to D-luciferin, Lineweaver-Burk plot, 5-640 μM D-luciferin, 4 mM ATP)?
Answer: 100 µM

Question: For `CN[C@@H]1C[C@H]2O[C@@](C)([C@@H]1OC)n1c3ccccc3c3c4c(c5c6ccccc6n2c5c31)C(=O)NC4` [STS, Staurosporine], which “intercellular ATP concentration at the initial stage of apoptosis” value [6] is on record?
Answer: caused to increase

B1: Yaeyama: luciferase originated from Yaeyama Hime firefly (Luciola filiformis yayeyamana), DNA sequence of Sequence No. 1 (protein)
chain: MEMEKEENVVYGPQPFYPIEAGSAGIQLHKYMHQYAQLGAIAFSNALTGVDISYQEYFDITCRLAEAMKNYGMTQEGRIALCSENCEEFFIPVVAGLYIGVGVAPTNEIYTLRELNHSLGIAEPTIVFSSRKGLPKVLEVQKNVTCIKTIVILDSKVNFGGYDCVETFIKKNVPSGFQPSSFKPMDVKNRKEHLALLMNSSGSTGLPKGVQITHEGTVTRFSHAKDPIYGNQVSPGTAILTVVPFHHGFGMFTTLGYFACGYRVVMLTKFDEELFLKTLQDYKCTSVILVPTLFGILNKSELIDKFDLSNLTEIASGGAPLAKEVGEAVARRFNLPGIRQGYGLTETTSAFIITPEGDDKPGASGKVVPLFKVKVIDLDTKKTLGVNRRGEICVKGPSLMKGYVRNPEATKEIIDDEGWMHTGDIGYYDEDEHFFIVDRLKSLIKYKGYQVPPAELESVLLQHPNIFDAGVAGVPDPEAGELPGAVVVLEKGKTMTEKQIVEYVNSQVVNHKRLRGGVRFVDEVPKGLTGKIDAKVIREILKKPQSKM
modifications: Luciola filiformis yayeyamana
Question: Which “affinity to ATP as compared with other kinds of luciferase” value [7] does the source give for B1 here?
Answer: relatively low in affinity to ATP

Question: And the “time of peak luminescence intensity after the addition of luciferin” value [8]?
Answer: 0.5 to 1 s

B2: Genji luciferase (Genji firefly, Luciola cruciata) (Nipponoluciola cruciata) (protein)
chain: MENMENDENIVVGPKPFYPIEEGSAGTQLRKYMERYAKLGAIAFTNAVTGVDYSYAEYLEKSCCLGKALQNYGLVVDGRIALCSENCEEFFIPVIAGLFIGVGVAPTNEIYTLRELVHSLGISKPTIVFSSKKGLDKVITVQKTVTTIKTIVILDSKVDYRGYQCLDTFIKRNTPPGFQASSFKTVEVDRKEQVALIMNSSGSTGLPKGVQLTHENTVTRFSHARDPIYGNQVSPGTAVLTVVPFHHGFGMFTTLGYLICGFRVVMLTKFDEETFLKTLQDYKCTSVILVPTLFAILNKSELLNKYDLSNLVEIASGGAPLSKEVGEAVARRFNLPGVRQGYGLTETTSAIIITPEGDDKPGASGKVVPLFKAKVIDLDTKKSLGPNRRGEVCVKGPMLMKGYVNNPEATKELIDEEGWLHTGDIGYYDEEKHFFIVDRLKSLIKYKGYQVPPAELESVLLQHPSIFDAGVAGVPDPVAGELPGAVVVLESGKNMTEKEVMDYVASQVSNAKRLRGGVRFVDEVPKGLTGKIDGRAIREILKKPVAKM
Question: Which results are given for B2?
Answer: Km ([9]; other: Hanes-Woolf plot): 75.0 µM; Km ([9]; other: Lineweaver-Burk plot): 75.0 µM; Km ([10]; other: Hanes-Woolf plot): 500 µM; Km ([10]; other: Lineweaver-Burk plot): 500 µM
